For 30 molecules, inhibition results are on record in patent publication EP2272817A1, “PAI-1 INHIBITOR” (Institute of Medicinal Molecular Design, Inc., priority 2008, dated 2009).

The target in this experiment is recombinant human PAI-1 (Homo sapiens, UniProt P05121). Kind of experiment: biochemical.
Setting [1] is: read-out: Inhibition Rate of PAI Activity (%).
The mark [2] stands for this setting: read-out: Inhibition Rate of PAI-1 Activity (%).

SMILES strings stand for the structures. Like-named read-outs stand apart in the source and are kept apart here. Some results are limits rather than exact numbers.
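Further: PAI-1 preincubated with compound, then two-chain tPA added, residual tPA activity read with fluorogenic Pyr-Gly-Arg-MCA substrate after 30 min at room temperature.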

recombinant human PAI-1, sequence (P05121 24-402): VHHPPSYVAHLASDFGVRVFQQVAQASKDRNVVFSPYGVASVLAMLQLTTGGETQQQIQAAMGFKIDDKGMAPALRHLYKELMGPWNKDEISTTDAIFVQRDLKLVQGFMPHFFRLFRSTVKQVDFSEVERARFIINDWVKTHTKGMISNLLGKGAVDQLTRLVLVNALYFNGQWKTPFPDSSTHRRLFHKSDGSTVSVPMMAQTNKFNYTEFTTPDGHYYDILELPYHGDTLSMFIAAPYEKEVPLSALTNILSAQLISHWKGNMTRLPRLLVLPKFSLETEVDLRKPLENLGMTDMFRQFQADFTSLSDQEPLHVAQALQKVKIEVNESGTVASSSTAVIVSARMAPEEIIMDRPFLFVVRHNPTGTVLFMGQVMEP

Turning to `O=C(O)CCc1cc(-c2ccc(OC(F)(F)F)cc2)ccc1OCc1cccc(C(F)(F)F)c1` [Compound 58], under setting [1], the inhibition – broadly, the drop in the measured response relative to a control, in per cent – at 5 µM was 22%; the inhibition at 10 µM came to 53%; the inhibition at 25 µM was found to be 97%.

With `Cc1cc(C)cc(COc2ccc(-c3ccc(OC(F)(F)F)cc3)cc2CCC(=O)O)c1` [Compound 59], under setting [1], the inhibition at 5 µM was 25%, the inhibition at 10 µM amounted to 53% and the inhibition at 25 µM was 77%.

Regarding `Cc1ccc(COc2ccc(-c3ccc(OC(F)(F)F)cc3)cc2CCC(=O)O)cc1` [Compound 61], under setting [1], the inhibition at 5 µM came out at 21%, the inhibition at 10 µM came to 48% and the inhibition at 25 µM was 97%.

Consider `O=C(O)CCc1cc(-c2ccc(OC(F)(F)F)cc2)ccc1OCc1ccc(OC(F)(F)F)cc1` [Compound 62], for which, under setting [1], the inhibition at 5 µM is 29%, the inhibition at 10 µM was 62% and the inhibition at 25 µM was 99%.

As for `CC(C)c1ccc(Oc2ccc(/C=C/C(=O)O)c(Oc3ccc(C(C)C)cc3)c2)cc1` [Compound 72], under setting [2], the inhibition at 5 µM came out at 32%, the inhibition at 10 µM turned out to be 72% and the inhibition at 25 µM came to 98%.

`CC(C)c1ccc(Oc2ccc(/C=C\C(=O)O)c(Oc3ccc(C(C)C)cc3)c2)cc1` [Compound 74]: under setting [2], the inhibition at 5 µM came to 13%, the inhibition at 10 µM amounted to 53% and the inhibition at 25 µM amounted to 96%.

Regarding `CC(C)(C)c1ccc(COc2cc(-c3ccc(OC(F)(F)F)cc3)ccc2/C=C/C(=O)O)cc1` [Compound 75], under setting [2], the inhibition at 5 µM was found to be 25%, the inhibition at 10 µM is 53% and the inhibition at 25 µM was 91%.

On to `CC(C)(C)c1ccc(COc2cc(Oc3ccc(OC(F)(F)F)cc3)ccc2/C=C/C(=O)O)cc1` [Compound 77], for which, under setting [2], the inhibition at 5 µM stood at 27%, the inhibition at 10 µM worked out at 51% and the inhibition at 25 µM amounted to 73%.

Regarding `CC(C)(C)c1ccc(Oc2cc(-c3ccc(OC(F)(F)F)cc3)ccc2/C=C/C(=O)O)cc1` [Compound 79], under setting [2], the inhibition at 5 µM worked out at 39%, the inhibition at 10 µM stood at 84% and the inhibition at 25 µM turned out to be 90%.

`COc1cc(-c2ccc(OC(F)(F)F)cc2)cc(/C=C/C(=O)O)c1OCc1ccc(C(C)(C)C)cc1` [Compound 81]: under setting [2], the inhibition at 5 µM came to 28%, the inhibition at 10 µM is 63% and the inhibition at 25 µM came out at 70%.

Turning to `COc1cc(-c2ccc(OC(F)(F)F)cc2)cc(CCC(=O)O)c1OCc1ccc(C(C)(C)C)cc1` [Compound 82], under setting [2], the inhibition at 5 µM was 26%, the inhibition at 10 µM was 59% and the inhibition at 25 µM turned out to be 98%.

As for `Cc1cc(-c2ccc(OC(F)(F)F)cc2)cc(/C=C/C(=O)O)c1OCc1ccc(C(C)(C)C)cc1` [Compound 83], under setting [2], the inhibition at 5 µM was 27%, the inhibition at 10 µM was 46% and the inhibition at 25 µM came out at 56%.

As for `Cc1cc(-c2ccc(OC(F)(F)F)cc2)cc(CCC(=O)O)c1OCc1ccc(C(C)(C)C)cc1` [Compound 84], under setting [2], the inhibition at 5 µM was found to be 28%, the inhibition at 10 µM is 62% and the inhibition at 25 µM stood at 95%.

Consider `CC(C)(C)c1ccc(COc2cccc(Oc3ccc(OC(F)(F)F)cc3)c2/C=C/C(=O)O)cc1` [Compound 85], for which, under setting [2], the inhibition at 5 µM was determined as 40%, the inhibition at 10 µM is 61% and the inhibition at 25 µM worked out at 85%.

For `CC(C)(C)c1ccc(COc2c(/C=C/C(=O)O)cccc2-c2ccc(OC(F)(F)F)cc2)cc1` [Compound 87], under setting [2], the inhibition at 5 µM came out at 44%, the inhibition at 10 µM is 81% and the inhibition at 25 µM was 96%.

In the case of `CC(C)(C)c1ccc(Oc2cc(Oc3ccc(OC(F)(F)F)cc3)ccc2/C=C/C(=O)O)cc1` [Compound 89], under setting [2], the inhibition at 5 µM came to 46%, the inhibition at 10 µM came out at 87% and the inhibition at 25 µM amounted to 95%.

For `CC(C)(C)c1ccc(COc2c(Cl)cc(-c3ccc(OC(F)(F)F)cc3)cc2/C=C/C(=O)O)cc1` [Compound 91], under setting [2], the inhibition at 5 µM worked out at 30%, the inhibition at 10 µM is 67% and the inhibition at 25 µM was 96%.

As to `CC(C)(C)c1ccc(COc2c(Cl)cc(-c3ccc(OC(F)(F)F)cc3)cc2CCC(=O)O)cc1` [Compound 92], under setting [2], the inhibition at 5 µM was 25%, the inhibition at 10 µM came to 63% and the inhibition at 25 µM came to 97%.

For `CC(C)(C)c1ccc(Oc2cccc(-c3ccc(OC(F)(F)F)cc3)c2/C=C/C(=O)O)cc1` [Compound 93], under setting [2], the inhibition at 5 µM turned out to be 51%, the inhibition at 10 µM is 87% and the inhibition at 25 µM came to 94%.

Regarding `CC(C)(C)c1ccc(COc2ccc(Oc3ccc(OC(F)(F)F)cc3)cc2/C=C/C(=O)O)cc1` [Compound 95], under setting [2], the inhibition at 5 µM amounted to 28%, the inhibition at 10 µM was found to be 77% and the inhibition at 25 µM stood at 96%.

For the molecule `O=C(O)/C=C/c1c(Oc2ccc(OC(F)(F)F)cc2)cccc1Oc1ccc(OC(F)(F)F)cc1` [Compound 97], under setting [2], the inhibition at 5 µM was 30%, the inhibition at 10 µM worked out at 40% and the inhibition at 25 µM came out at 53%.

For the molecule `CC(C)(C)c1ccc(Oc2ccc(Oc3ccc(OC(F)(F)F)cc3)cc2/C=C/C(=O)O)cc1` [Compound 99], under setting [2], the inhibition at 5 µM was found to be 31%, the inhibition at 10 µM was 66% and the inhibition at 25 µM is 99%.

Take `O=C(O)CCc1cc(-c2ccc(OC(F)(F)F)cc2)ccc1OCCCc1ccccc1` [Compound 101]: under setting [2], the inhibition at 5 µM worked out at 42%, the inhibition at 10 µM worked out at 73% and the inhibition at 25 µM is greater than 99%.

As to `O=C(O)CCc1cc(-c2ccc(OC(F)(F)F)cc2)ccc1OCCCOc1ccccc1` [Compound 103], under setting [2], the inhibition at 5 µM was determined as 33%, the inhibition at 10 µM was 57% and the inhibition at 25 µM amounted to 89%.

As to `O=C(O)CCc1cc(-c2ccc(OC(F)(F)F)cc2)ccc1OCCCCCc1ccccc1` [Compound 104], under setting [2], the inhibition at 5 µM was 47%, the inhibition at 10 µM is 77% and the inhibition at 25 µM was found to be 96%.

In the case of `CC(C)(C)c1ccc(COc2ccc(-c3ccc(OC(F)(F)F)cc3)cc2COCC(=O)O)cc1` [Compound 107], under setting [2], the inhibition at 5 µM stood at 48%, the inhibition at 10 µM worked out at 85% and the inhibition at 25 µM stood at 97%.

On to `CC(OCC(=O)O)c1cc(-c2ccc(OC(F)(F)F)cc2)ccc1OCc1ccc(C(C)(C)C)cc1` (stereo not drawn) [Compound 108], for which, under setting [2], the inhibition at 5 µM was found to be 52%, the inhibition at 10 µM is 86% and the inhibition at 25 µM was 95%.

Consider `CC(C)(C)c1ccc(COc2ccc(-c3ccc(OC(F)(F)F)cc3)cc2OCCCC(=O)O)cc1` [Compound 109], for which, under setting [2], the inhibition at 5 µM is 24%, the inhibition at 10 µM turned out to be 50% and the inhibition at 25 µM was 96%.

Take `CC(C)(Oc1ccc(-c2ccc(OC(F)(F)F)cc2)cc1Oc1ccc(C(C)(C)C)cc1)C(=O)O` [Compound 110]: under setting [2], the inhibition at 5 µM was 37%, the inhibition at 10 µM came out at 51% and the inhibition at 25 µM amounted to 83%.

On to `CC(C)(OCc1ccc(-c2ccc(OC(F)(F)F)cc2)cc1Oc1ccc(C(C)(C)C)cc1)C(=O)O` [Compound 111], for which, under setting [2], the inhibition at 5 µM was determined as 55%, the inhibition at 10 µM came to 88% and the inhibition at 25 µM came to 94%.
